Data published in patent US10696686B2, “Herbicidally active (alkynyl-phenyl)-substituted cyclic dione compounds and derivatives thereof” (Syngenta Limited, priority 2013, dated 2020).

Key:
Format in all cases: in vivo
[1] = tested on: Abutilon theophrasti (ABUTH); assay: Biological Example 1A glasshouse assay, post-emergence application; details: 312 h, 250 g/ha, 13 days after application, read-out: Percentage phytotoxicity ABUTH
Procedure: (§1) Seeds of a variety of test plant species were sown in standard soil ** in pots. After cultivation for one day (pre-emergence) or after 8 days cultivation (post-emergence) under controlled conditions in a glasshouse (at 24/16° C., day/night; 14 hours light; 65% humidity), the plants were sprayed with an aqueous spray solution derived from the formulation of the technical active ingredient (the test herbicide) in acetone/water (50:50) solution containing 0.5% Tween 20 (polyoxyethylene sorbitan monolaurate, CAS Reg. No. 9005-64-5). The test plants were then grown on under controlled conditions in a glasshouse (at 24/16° C., day/night; 14 hours light; 65% humidity) and watered twice daily. 13 Days after application of the test herbicide, for pre- and post-emergence, the test was evaluated visually for percentage phytotoxicity to each plant (where 100%=total damage to plant; 0%=no damage to plant). Generally, each test herbicide is only tested on 1 plant per plant species for each application rate tested and for each application timing. ** The “standard soil” in Biological Example 1 is usually a “sand” or “sandy loam” type of soil.
(§2) Dicotyledonous weeds: ABUTH=Abutilon theophrasti; AMARE=Amaranthus retroflexus. Grassy monocotyledonous weeds: SETFA=Setaria faberi; ALOMY=Alopecurus myosuroides; ECHCG=Echinochloa crus-galli; ZEAMX=Zea mays (corn, maize, e.g. volunteer corn). For Compound A16, the grassy monocotyledonous weed LOLPE (Lolium perenne) was used in the test insterad of ALOMY.

[2] = tested on: Alopecurus myosuroides (ALOMY); assay: as above; details: 250 g/ha; for Percentage phytotoxicity ALOMY: 13 days after application
Procedure: as §1, §2

[3] = tested on: Amaranthus retroflexus (AMARE); assay: as above; details: 312 h, 250 g/ha, 13 days after application, read-out: Percentage phytotoxicity AMARE
Procedure: as §1, §2

[4] = tested on: Echinochloa crus-galli (ECHCG); assay: as above; details: 312 h, 250 g/ha, 13 days after application, read-out: Percentage phytotoxicity ECHCG
Procedure: as §1, §2

[5] = tested on: Setaria faberi (SETFA); assay: as above; details: for pest or weed control at 250 g/ha: Setaria faberi, 312 h, 13 days after application, read-out: Percentage phytotoxicity SETFA
Procedure: as §1, §2

[6] = tested on: Zea mays (ZEAMX, corn, maize, e.g. volunteer corn); assay: as above; details: for pest or weed control at 250 g/ha: Zea mays, 312 h, 13 days after application, read-out: Percentage phytotoxicity ZEAMX
Procedure: as §1, §2

[7] = tested on: Abutilon theophrasti (ABUTH); assay: Biological Example 1B glasshouse assay, pre-emergence application; details: 250 g/ha, 13 days after application
Procedure: as §1, §2

[8] = tested on: Alopecurus myosuroides (ALOMY); assay: as above; details: 250 g/ha, 13 days after application
Procedure: as §1, §2

[9] = tested on: Amaranthus retroflexus (AMARE); assay: as above; details: 250 g/ha, 13 days after application
Procedure: as §1, §2

[10] = tested on: Echinochloa crus-galli (ECHCG); assay: as above; details: 250 g/ha, 13 days after application
Procedure: as §1, §2

[11] = tested on: Setaria faberi (SETFA); assay: as above; details: 250 g/ha, 13 days after application
Procedure: as §1, §2

[12] = tested on: Zea mays (ZEAMX, corn, maize, e.g. volunteer corn); assay: as above; details: 250 g/ha, 13 days after application
Procedure: as §1, §2

[13] = applied at about 250 g/ha post-emergence

For `CC#Cc1cc(F)c(C2C(=O)CC(CC(C)SC)CC2=O)c(OC)c1` (centres unmarked) [Compound A12], the pest or weed control at 250 g/ha [1] was 0%, the “Percentage phytotoxicity ALOMY” value [2] was 0% and the pest or weed control at 250 g/ha [3] was 0%. It also gave a pest or weed control at 250 g/ha [4] of 20%, a pest or weed control at 250 g/ha ([5]; post-emergence, 250 g/ha) of 0% and a pest or weed control at 250 g/ha ([6]; post-emergence, 250 g/ha) of 30%.

In the case of `CC#Cc1cc(F)c(C2C(=O)CC3(CCOCC3)CC2=O)c(OC)c1` [Compound A14], the pest or weed control at 250 g/ha [1] was 0%, the “Percentage phytotoxicity ALOMY” value [2] was 40% and the “herbicidal potency against ALOMY compared with compound B2 (in words)” value ([2]; Biological Example 1A) was “more potent herbicide”. For the same compound, the pest or weed control at 250 g/ha [3] was 10%, the pest or weed control at 250 g/ha [4] was 20% and the pest or weed control at 250 g/ha ([5]; post-emergence, 250 g/ha) was 70%. The “post-emergent herbicidal potency on SETFA (in words)” value [5, 13] was “potent post-emergent herbicides”, the “herbicidal potency against SETFA compared with compound B2 (in words)” value ([5]; post-emergence, 250 g/ha, Biological Example 1A, more potent 'perhaps also' on SETFA) was “perhaps also” and the pest or weed control at 250 g/ha ([6]; post-emergence, 250 g/ha) was 80%. The “post-emergent herbicidal potency on ZEAMX (in words)” value [6, 13] was “potent post-emergent herbicides”, the “herbicidal potency against ZEAMX compared with compound B2 (in words)” value ([6]; post-emergence, 250 g/ha, Biological Example 1A) was “more potent herbicide” and the “Percentage phytotoxicity ABUTH” value [7] was 0%. For the same compound, the “Percentage phytotoxicity ALOMY” value [8] was 40%, the “Percentage phytotoxicity AMARE” value [9] was 20% and the “Percentage phytotoxicity ECHCG” value [10] was 70%. For the same compound, the “Percentage phytotoxicity SETFA” value [11] was 20% and the “Percentage phytotoxicity ZEAMX” value [12] was 30%.

In the case of `C#Cc1cc(F)c(C2C(=O)CC3(CCOCC3)CC2=O)c(OC)c1` [Compound B2], the pest or weed control at 250 g/ha [1] was 0%, the “Percentage phytotoxicity ALOMY” value [2] was 10% and the pest or weed control at 250 g/ha [3] was 0%. It also gave a pest or weed control at 250 g/ha [4] of 30%, a pest or weed control at 250 g/ha ([5]; post-emergence, 250 g/ha) of 60% and a pest or weed control at 250 g/ha ([6]; post-emergence, 250 g/ha) of 40%. For the same compound, the “Percentage phytotoxicity ABUTH” value [7] was 0%, the “Percentage phytotoxicity ALOMY” value [8] was 50% and the “Percentage phytotoxicity AMARE” value [9] was 40%. For the same compound, the “Percentage phytotoxicity ECHCG” value [10] was 40%, the “Percentage phytotoxicity SETFA” value [11] was 30% and the “Percentage phytotoxicity ZEAMX” value [12] was 50%.
